Patent US5389621A, “Method of enhancing the anticoagulant effects of aspirin using salicylamide” (University of Medicine and Dentistry of New Jersey, priority 1994, dated 1995)

What was measured:
Assay type in all cases: in vivo, male Sprague-Dawley rats
[1] = Plasma kinetics of total 14C after oral 14C-aspirin alone or with salicylamide; conditions: for AUC.infin. of 14C: mean ± SE, n=6
Description: (§1) Male adult Sprague-Dawley rats (300-325 gm) obtained from Charles River Breeding Laboratory, N. Wilmington, Mass. were quarantined for one week. All animals were identified by ear punching. Food and water were provided ad libitum. The animals were maintained on rodent lab chow diet in a controlled environment with 50% humidity and 12 hour light/dark cycle.
Two dose combinations were employed. The low dose was 10 and/or 3 mg/kg of ASA and/or SAM, respectively, while the high dose was double the low dose. These doses were approximately equal (w/w) to that in commercially available combinations, e.g., BC® formula, when administered to humans.
Rats were divided into 2 groups; the first group consisted of 30 rats which were assigned to 5 subgroups, 6 rats each, according to the following treatment scheme:
The second group consisted of 4 subgroups and were administered double the dose received by the first group (with the exception of subgroup III).
The rats were fasted overnight (~18 hr.) before administration of the treatments and were allowed water ad libitum. The drug(s) to be given were prepared fresh in the morning of the study, dissolved in 2.5 ml of deionized water and gavaged to rats.
The specific activity of ASA was 739 and 369 dpm/μg for the low and high dose treatments, respectively.
The samples were collected by heparinized plastic syringes and transferred to polyethylene test tubes. The samples, ~300 μl each, were rapidly centrifuged at 1800×g for 15 minutes at 4° C.
The terminal elimination rate constant (ke) was estimated by linear regression of the terminal β phase of the plasma concentration vs. time curves. The area under the curve (AUC.infin.) was calculated by using the trapezoidal method from zero to the last measured plasma concentration. The half-life of elimination (t1/2β) was obtained by the equation t1/2β =0.693/ke.
Total body clearance (ClT) was estimated by the equation ClT =Dose/AUC assuming a complete absorption of ASA and SAM (Iwamoto et al., 1982; Iwamoto et al., 1983). The apparent volume of distribution Vd was calculated from the formula, Vd =ClT /ke.

[2] = Tissue distribution of 14C radioactivity after 14C-aspirin; conditions: 1.5 hr
Description: as §1
(§2) Forty-eight rats were divided into two groups. The first group of rats was administered ASA, SAM or their combination in a dose approximately equal (w/w) to that in the commercially available combinations, e.g., BC® formula, when administered to humans, i.e., 10 and 3 mg/kg of ASA and SAM, respectively. The second group was administered double the dosage received by the first group.
Each group consisted of 24 rats and was further divided into 4 subgroups, 6 rats each, according to the following scheme:
The rats were fasted overnight. The drug(s) were prepared fresh, dissolved in 2.5 ml of deionized water and administered orally by gavage needle. The rats were allowed water ad libitum before and after the oral administration.
The different treatments were given according to the previous scheme and each rat received an amount of radioactivity equal to […] in the case of radioactive aspirin and 10 μCu in the case of radioactive salicylamide.
(§3) The rats were anesthetized by light diethyl ether inhalation. A blood sample of nearly 3 ml was collected by cardiac puncture 1.5 hours after oral administration. The blood was transferred to chilled polyethylene tubes containing 30 μl of 50% (w/w) potassium fluoride to prevent hydrolysis of ASA. A 300 μl aliquot was pipetted in a scintillation vial to study the distribution in whole blood. The rest of the collected blood was immediately centrifuged at 1800×g for 10 minutes at 4° C. and the plasma was decanted. 100 μl of the plasma were pipetted in a scintillation vial for measurement of the total radioactivity and the rest of the plasma was stored immediately at -70° C. for later study of the distribution of the metabolites.
300 μl of the pellet of red blood cells was pipetted in a scintillation vial to study the distribution in red blood cells. The rest of the red blood cells were washed twice by adding 2 ml of physiological saline and were resuspended after each addition.
After collecting the blood sample, the rats were sacrificed immediately by a diethyl ether overdose. The following tissues were collected: liver, lung, kidney, heart, spleen, perinephric fat, brain, upper small intestine, stomach, pancreas, bone (femur and tibia), testis, skin and skeletal muscle. A sample of bone marrow was also collected (approximately20 mg).
300 mg tissue samples were placed in scintillation vials and 300 μl of 70% perchloric acid and 600 μl of 30% hydrogen peroxide were added to each vial and also to the vials containing the washed red blood cells aliquots. The vials were incubated at 75° C. for 1 hour in a shaking water bath and were tightly capped to prevent any loss of radioactivity by evaporation.
The vials were left to cool to room temperature for 15 minutes before 10 ml Aquasol-2 scintillation fluid was added to each vial. The total radioactivity was counted in a Beckman model 7500 LS spectrophotometer.

[3] = Tightly protein-bound 14C radioactivity after 14C-aspirin; conditions: 1.5 hr
Description: as §2, §3
The plasma tightly protein-bound activity was measured by adding 100 μl of 10% trichloroacetic acid (TCA) to 100 μl of plasma in microcentrifuge tubes and vortexing the contents for 1 minute followed by centrifugation at 1800×g for 10 minutes. The supernatant was decanted and the tubes with the pellets in them were placed in scintillation vials each containing 15 ml of Aquasol-2 scintillation fluid. […] The radioactivity in the scintillation vials was counted in Beckman LS counter.

[4] = oral 14C-ASA 10 mg/kg, alone or with SAM 3 mg/kg
[5] = oral 14C-ASA 20 mg/kg, alone or with SAM 6 mg/kg
[6] = 14C-ASA 10 mg/kg, alone or with SAM 3 mg/kg
[7] = 14C-ASA 20 mg/kg, alone or with SAM 6 mg/kg

CC(=O)Oc1ccccc1[14C](=O)O [^14 C-ASA]
Effect on AUC.infin. of 14C ([1]; after 14C-ASA): showed a dose dependent increase | Effect on total body clearance (ClT) of 14C ([1]; after 14C-ASA): decreased dose-dependently | T1/2β of 14C ([1]; high dose, 14C-ASA alone or with SAM): 5.1 h | Elimination half-life of 14C ([1]; low dose of 14C-ASA alone or in combination with SAM, from 6-24 hour plasma concentrations, 10 mg/kg): 2.8 to 3.2 h | AUC4hr of 14C (first 4 hr) [1, 4]: 99.6 ± 10.6 µg·h/mL | C1T total body clearance of 14C [1, 4]: 10.3 ± 1.1 mL/h | Cmax of 14C [1, 4]: 29900 ± 2300 ng/mL | T1/2abs absorption half-life of 14C [1, 4]: 9.1 ± 1.1 min | T1/2β elimination half-life of 14C [1, 4]: 3.2 ± 0.2 h | Vd apparent volume of distribution of 14C [1, 4]: 46.1 ± 2.4 mL | AUC.infin. of 14C [1, 4]: 345.7 ± 38.3 µg·h/mL | AUC4hr of 14C (first 4 hr) [1, 5]: 222.2 ± 15.3 µg·h/mL | C1T total body clearance of 14C [1, 5]: 7.7 ± 0.8 mL/h | Cmax of 14C [1, 5]: 65100 ± 8200 ng/mL | T1/2abs absorption half-life of 14C [1, 5]: 8.9 ± 0.9 min | Vd apparent volume of distribution of 14C [1, 5]: 85.5 ± 28.1 mL | AUC.infin. of 14C [1, 5]: 810.6 ± 81.7 µg·h/mL | 14C radioactivity in RBCs [2, 6]: 4.2 ± 1.2 μg/gm tissue | 14C radioactivity in blood [2, 6]: 17.1 ± 3.1 μg/gm tissue | 14C radioactivity in bone [2, 6]: 2.7 ± 0.08 μg/gm tissue | 14C radioactivity in bone marrow [2, 6]: 0.24 ± 0.05 μg/50 mg of bone marrow | 14C radioactivity in brain [2, 6]: 1.5 ± 0.1 μg/gm tissue | 14C radioactivity in fat [2, 6]: 3.3 ± 0.1 μg/gm tissue | 14C radioactivity in heart [2, 6]: 5.6 ± 0.5 μg/gm tissue | 14C radioactivity in kidney [2, 6]: 15.1 ± 0.9 μg/gm tissue | 14C radioactivity in liver [2, 6]: 7.9 ± 0.9 μg/gm tissue | 14C radioactivity in lung [2, 6]: 7.3 ± 0.5 μg/gm tissue | 14C radioactivity in muscle [2, 6]: 3.5 ± 0.2 μg/gm tissue | 14C radioactivity in pancreas [2, 6]: 5.7 ± 0.4 μg/gm tissue | 14C radioactivity in plasma [2, 6]: 35.5 ± 1.7 μg/gm tissue | 14C radioactivity in skin [2, 6]: 8.9 ± 0.4 μg/gm tissue | 14C radioactivity in spleen [2, 6]: 2.9 ± 0.6 μg/gm tissue | 14C radioactivity in stomach [2, 6]: 18.9 ± 3.3 μg/gm tissue | 14C radioactivity in testis [2, 6]: 5.1 ± 0.5 μg/gm tissue | 14C radioactivity in upper small intestine [2, 6]: 5.8 ± 0.6 μg/gm tissue | 14C radioactivity in washed RBCs [2, 6]: 1.5 ± 0.5 μg/gm tissue | 14C radioactivity in RBCs [2, 7]: 8.8 ± 1.2 μgm/gm tissue | 14C radioactivity in blood [2, 7]: 36.1 ± 3.5 μgm/gm tissue | 14C radioactivity in bone [2, 7]: 7.1 ± 0.6 μgm/gm tissue | 14C radioactivity in bone marrow [2, 7]: 0.79 ± 0.03 μgm/50 mg bone marrow | 14C radioactivity in brain [2, 7]: 4.1 ± 0.07 μgm/gm tissue | 14C radioactivity in fat [2, 7]: 4.5 ± 0.3 μgm/gm tissue | 14C radioactivity in heart [2, 7]: 17.5 ± 0.5 μgm/gm tissue | 14C radioactivity in kidney [2, 7]: 32.0 ± 3.2 μgm/gm tissue | 14C radioactivity in liver [2, 7]: 19.7 ± 0.9 μgm/gm tissue | 14C radioactivity in lung [2, 7]: 19.3 ± 0.7 μgm/gm tissue | 14C radioactivity in muscle [2, 7]: 9.5 ± 0.4 μgm/gm tissue | 14C radioactivity in pancreas [2, 7]: 12.6 ± 0.5 μgm/gm tissue | 14C radioactivity in plasma [2, 7]: 65.1 ± 1.91 μgm/gm tissue | 14C radioactivity in skin [2, 7]: 21.9 ± 0.6 μgm/gm tissue | 14C radioactivity in spleen [2, 7]: 10.0 ± 0.9 μgm/gm tissue | 14C radioactivity in stomach [2, 7]: 22.9 ± 4.6 μgm/gm tissue | 14C radioactivity in testis [2, 7]: 14.1 ± 0.6 μgm/gm tissue | 14C radioactivity in upper small intestine [2, 7]: 15.1 ± 1.0 μgm/gm tissue | 14C radioactivity in washed RBCs [2, 7]: 3.8 ± 0.9 μgm/gm tissue | Tissue with the highest 14C concentration ([2]; 14C-ASA alone or with SAM, low dose): plasma attained the highest concentration | Tightly protein-bound 14C in heart [3, 4]: 2.30 ± 0.28 μg ^14 C/gm tissue | Tightly protein-bound 14C in kidney [3, 4]: 3.85 ± 0.30 μg ^14 C/gm tissue | Tightly protein-bound 14C in liver [3, 4]: 3.93 ± 0.04 μg ^14 C/gm tissue | Tightly protein-bound 14C in lung [3, 4]: 1.62 ± 0.14 μg ^14 C/gm tissue | Tightly protein-bound 14C in plasma [3, 4]: 26.95 ± 2.67 μg ^14 C/ml plasma | Tightly protein-bound 14C in heart [3, 5]: 5.79 ± 0.40 μg ^14 C/gm tissue | Tightly protein-bound 14C in kidney [3, 5]: 11.66 ± 0.29 μg ^14 C/gm tissue | Tightly protein-bound 14C in liver [3, 5]: 9.81 ± 0.12 μg ^14 C/gm tissue | Tightly protein-bound 14C in lung [3, 5]: 5.84 ± 0.40 μg ^14 C/gm tissue
